BindingDB's records for doi:10.1016/j.bmcl.2007.04.053 (Merck Research Laboratories, 2007)

Assay: Inhibition of chemotaxis in human MCP1 monocytes

Question: With CC(C)C[C@]1(C(=O)NCc2cc(F)cc(C(F)(F)F)c2)CC[C@@H](N2CC[C@]3(C=Cc4ccccc43)[C@@H](C)C2)C1 [(1R,3R)-N-{[3-fluoro-5-(trifluoromethyl)phenyl]methyl}-1-(2-methylpropyl)-3-[(1S,5'R)-5'-methylspiro[indene-1,4'-piperidine]-1'-yl]cyclopentane-1-carboxamide] as the molecule, how does the IC50 read?
Answer: The IC50 was 0.32 nM.

Question: Which IC50 does the source give for C[C@H]1CN([C@@H]2CC[C@@](C(=O)NCc3cc(F)cc(C(F)(F)F)c3)(C3CC3)C2)CC[C@]12C=Cc1ccccc12 [(1S,3R)-1-cyclopropyl-N-{[3-fluoro-5-(trifluoromethyl)phenyl]methyl}-3-[(1S,5'R)-5'-methylspiro[indene-1,4'-piperidine]-1'-yl]cyclopentane-1-carboxamide] here?
Answer: The IC50 was 0.23 nM.

Question: With CC(C)[C@]1(C(=O)NCc2cc(F)cc(C(F)(F)F)c2)CC[C@@H](N2CC[C@]3(C=Cc4ccccc43)[C@@H](C)C2)C1 [(1S,3R)-N-{[3-fluoro-5-(trifluoromethyl)phenyl]methyl}-3-[(1S,5'R)-5'-methylspiro[indene-1,4'-piperidine]-1'-yl]-1-(propan-2-yl)cyclopentane-1-carboxamide] as the molecule, how does the IC50 read?
Answer: The IC50 was 0.15 nM.
